Tests used:
rats [1] = assay: 5 Choice Serial Reaction Time Task (5-CSRTT); type: in vivo, rats (males; Long Evans)
Procedure: (§1) Testing was carried out in Vancouver (Canada) using rats (males; Long Evans from Charles River) which were given at least two weeks to acclimatise to the animal facility. They were housed in pairs on a 12 hour reverse light-dark cycle (lights off at 7 am). In the second week of acclimatisation, rats were handled briefly each day. […] For each task, there was then a habituation session to the operant boxes before training began.
(§2) Ebselen, cocaine and 2,5-dimethoxy-4-iodoamphetamine (DOI) were obtained from Sigma Aldrich, and MDL 100,907 was obtained from Tocris. Ebselen was dissolved in 0.5M DMSO and made up to injection volume (8 ml/kg) using 4% cyclodextrin. Cocaine and DOI were dissolved in 0.9% saline. MDL 100,907 was dissolved in 0.9% saline and the pH was adjusted to 6.25 using 1M NaOH and 0.1M HCl.
(§3) All data for the cognitive tasks are presented as mean+SEM change from baseline: • performance on drug day−performance on the previous day
The data were analysed with repeated measures ANOVA with dose as a within-subject factor. Where appropriate, post-hoc analysis was performed using Student's paired t-test.
This test was performed as described previously (Bari et al., Nature Protocols, 2008, 3(5), 759-767; Robbins, Psychopharmacology, 2002, 163(3), 362-380).
Fourteen rats were trained to respond to brief visual cues presented in one of five target areas with an inter-trial interval of 5 seconds. On the day of testing in the presence of ebselen, the inter-trial interval was lengthened to 7 seconds to cause a reliable increase in premature responding.
Ebselen and vehicle were administered by intraperitoneal (i.p.) injection 1 hour prior to testing. Three doses of ebselen (2, 5 or 10 mg/kg) were studied, administration being in a random order that was determined by a Latin square design. Rats were run five days a week, with the treatment day falling on day three.
Following ebselen, 3 doses of MDL 100,907 (0.01, 0.03 and 0.1 mg/kg, i.p.) were tested in a Latin square design with the first injection occurring one week after the final injection of ebselen. MDL 100,907 is a selective 5-HT2A antagonist. Rats were similarly run five days a week with injections falling on the third day, and the lengthened inter-trial interval was used only on the drug-administration day.
The Latin square design (for both the 5-CSRTT and rGT experiments) was counterbalanced, based on performance in the last training day of each task. A one week wash-out period was given between drug-administration days. A baseline session was performed both the day before and the day after treatment to ensure stable off-drug performance.

rats [2] = assay: 5-CSRTT, stimulant (cocaine)-induced responding; type: in vivo, rats (males; Long Evans)
Procedure: as §1, §2, §3
In experiments investigating the effect of ebselen on cocaine and DOI, data were analysed with a two-way ANOVA with ebselen and cocaine/DOI as between-subject factors. If an interaction was detected, this was further investigated using simple main effects analysis. All analyses were conducted using SPSS 22 with p<0.05 considered significant.
To assess the effect of ebselen on stimulant-induced responding, ebselen (10 mg/kg) or vehicle was administered 1 hour prior to cocaine (15 mg/kg i.p.), which in turn was administered 10 minutes prior to testing. Treatments were administered using according to a Latin square design. The inter-trial interval for these sessions was 5 seconds. Two rats were excluded from the data due to increasing levels of omissions across all days of this portion of the study. The experiment was repeated using 0.03 mg/kg MDL 100,907 instead of ebselen.

COc1cccc([C@H](O)C2CCN(CCc3ccc(F)cc3)CC2)c1OC [MDL 100,907, reference compound]
accuracy (decrease seen following vehicle injection) (rats [1]; MDL 100,907 0.01 mg/kg (second mention), p=0.027): significantly negated the decrease in accuracy
accuracy (decrease seen following vehicle injection) (rats [1]; MDL 100,907 0.01 mg/kg i.p., p=0.020): significantly negated the decrease in accuracy
accuracy (decrease seen following vehicle injection) (rats [1]; MDL 100,907 0.03 mg/kg i.p., p=0.052): trend
other parameters of the 5-CSRTT (rats [1]; MDL 100,907 0.01, 0.03, 0.1 mg/kg i.p., p=0.170-0.872): no detectable effects
premature responding (rats [1]; MDL 100,907 at all dosage levels (0.01, 0.03 and 0.1 mg/kg i.p.) vs vehicle, p=0.008, 0.009, 0.001): decreased premature responding
cocaine-induced increases in premature responding (rats [2]; MDL 100,907 0.03 mg/kg before cocaine 15 mg/kg i.p., p=0.282): did not reduce cocaine-induced increases in premature responding
correct response latency (rats [2]; MDL 100,907 0.03 mg/kg, cocaine experiment, p=0.072): increased trend

From US10653680B2, “Treatment of impulsivity-related disorders” (OXFORD UNIVERSITY INNOVATION LIMITED, priority 2016, dated 2020)
